Source: patent US12410457B2, “Use of rosmarinic acid in cell bioproduction” (BRISTOL-MYERS SQUIBB COMPANY, priority 2015, dated 2025)

How the values were obtained:
Assay type in all cases: cell-based, Chinese Hamster
[1] = tested on: aCD137 cells; experiment: Screen of antioxidants added to feed media in aCD137 fed-batch cell culture; settings: for VCD %: day 8 (peak VCD), basal media not supplemented; for VCD % / Titer %: normalized to control without antioxidant; for Titer %: final titer harvested day 14
Method: Following the cell culture process described in Example 1, thirteen novel antioxidants (Table 1) were added to the feed media utilized in aCD137 cell culture. Three antioxidant concentrations were evaluated: 1 mM (Run #1-13), 0.25 mM (Run #17-29), and 0.0625 mM (Run #33-45). The antioxidants were dissolved in either pure ethanol or dimethyl sulfoxide (DMSO) at 50 mM stock concentration and added to feed media M154A1B at the designed final concentrations. The corresponding solvent negative controls were run number 16, 32, and 48. Two traditional antioxidants, ascorbic acid (Run #14, 30, and 46) and reduced glutathione (Run #15, 31, and 47), served as positive controls. The basal media M171IB was not supplemented with antioxidant.
(§1) Cells were cultured either in 50 ml spin tubes with an initial volume of 25 ml and a shaking speed of 300 rpm; or 250 ml shake flasks with an initial volume of 80˜100 ml and a shaking speed of 150 rpm on an orbital shaker with 25 mm throw distance. Temperature for the culture was controlled at constant 37° C. from the beginning of the culture and was shifted to 34° C. when viable cell density reached 10^6 cells/ml (usually on day 6) and CO2 was controlled at 6%.
(§2) A standard fed-batch culture process involved culturing the cells for 14 days with feeding beginning on day 3 at a feeding volume of 3.64% of initial culture volume. All the media used for cultures were chemically defined. Chemically defined feed media M154A1B is an enriched version of feed media F3.2. While the ingredient lists are the same between the two feed media, the concentration of a few of the ingredients is increased. Likewise, chemically defined basal media M17IB is an enriched version of basal media B1. For cultures in 7-liter or 500-liter reactors, dissolved oxygen (DO) was maintained at 50% and pH was controlled between 6.8 and 7.4.
(§3) Viable cell density (VCD) and cell viability were measured off-line using a CEDEX® automated cell counter (Innovatis AG). Culture samples were also analyzed off-line using a BIOPROFILE® 400 Analyzer to monitor pH, pCO2, pO2, glucose, glutamine, glutamate, lactate, and ammonium (Nova Biomedical Corporation). A Protein A HPLC method was used to measure protein titer, which were reported as normalized values.

[2] = tested on: aCD137 cells; experiment: aCD137 fed-batch culture with antioxidant in basal and/or feed media (shaker flask, 7-liter, 500-liter)
Method: In another embodiment, the dhfr-negative Chinese Hamster Ovary (CHO) cell line DG44 (Invitrogen Corp. Carlsbad, CA) were transfected in order to establish a stable cell line expressing a human IgG4 antibody.
The transfected CHO DG44 cells expressing the antibody was grown in the presence of antioxidants according to the methods of the invention.
as §1, §2, §3

[3] = tested on: myostatin cells; experiment: Myostatin cell culture with antioxidant in basal and/or feed media (shake flask, 20-liter reactor)
Method: (§4) In another embodiment, the dhfr-negative Chinese Hamster Ovary (CHO) cell line DG44 (Invitrogen Corp. Carlsbad, CA) was transfected in order to establish a stable cell line expressing a recombinant human fusion protein.
(§5) The transfected CHO DG44 cells expressing the fusion protein was grown in the presence of antioxidants according to the methods of the invention.
as §1, §2, §3

[4] = tested on: aCD40L cells; experiment: aCD40L cell shake flask culture with catechin in feed media; settings: feed media 154A1 at 0.34 μM, 3.45 μM, 34.45 μM, 344.52 μM; basal media M17IB without catechin; shake flasks
Method: as §4, §5, §1
A standard fed-batch culture process involved culturing the cells for 14 days with feeding beginning on day 3 at a feeding volume of 3.64% of initial culture volume. All the media used for cultures were chemically defined. […]
as §3, with “A Protein A HPLC method was used to measure protein titer, which were reported as normalized values.” left out

[5] = 0.0625 mM in feed media M154A1B
[6] = feed at all three concentrations (0.0625-1 mM)
[7] = basal media M17IB 0.07 mM and feed media M154A1B 1 mM, shaker flask fed-batch
[8] = basal media M17IB at 0.1 mM, feed media M154A1B, 7-liter fed-batch
[9] = feed media F3.2 at 1 mM, basal media B1, shaker flask fed-batch
[10] = basal media B1 at 0.1 mM, feed media F3.2, 20-liter bioreactor
[11] = basal media at 0.1 mM, 500-liter production run
[12] = basal media B1 at 0.1 mM or feed media F3.2 at 1 mM or both, shake flask

Molecule	VCD % [1, 5] [%]	Titer % [1, 5] [%]	VCD % ([1]; 0.25 mM in feed media M154A1B) [%]	Titer % ([1]; 0.25 mM in feed media M154A1B) [%]	VCD % ([1]; 1 mM in feed media M154A1B) [%]	Titer % ([1]; 1 mM in feed media M154A1B) [%]	protein titer [1, 6]	protein titer [2, 7]	viable cell density [2, 7]	also measured
catechin	98.66	111.90	93.52	112.70	102.01	116.67	increased protein titer	increased	increased	ammonium formation [2, 8]: reduced; lactate formation [2, 8]: reduced; protein titer [2, 8]: increased; viable cell density [2, 8]: increased; protein titer [2, 9]: increased; viable cell density [2, 9]: maintained; protein titer [3, 10]: effect on protein titer was maintained; viable cell density [3, 10]: not changed; protein titer [4]: corresponds to an increase in catechin concentration; viable cell density [4]: corresponds to an increase in catechin concentration
O=c1c(O)c(-c2ccc(O)c(O)c2)oc2cc(O)cc(O)c12 [Quercetin, quercetin]			119.28	111.90	123.11	128.97		increased	increased	protein titer ([1]; feed at 0.25 mM and 1 mM): increased protein titer
O=C(/C=C/c1ccc(O)c(O)c1)O[C@@H]1C[C@](O)(C(=O)O)C[C@@H](O)[C@H]1O [Chlorogenic acid, chlorogenic acid]	115.85	110.71	109.35	109.92	129.57	151.59	increased protein titer	increased	increased	
COc1cc(C2Oc3cc([C@H]4Oc5cc(O)cc(O)c5C(=O)[C@@H]4O)ccc3OC2CO)ccc1O (stereo partly drawn) [Silibinin, silibinin]					99.11	144.44				
Oc1ccc(-c2[o+]c3cc(O)cc(O)c3cc2O)cc1 [Pelargonidin, pelargonidin]					104.47	118.25				
Oc1ccc(C=Cc2cc(O)cc(O)c2)cc1 [Resveratrol, resveratrol]	102.53	112.70	92.24	111.90	107.48	144.05	increased protein titer	increased	increased	
O=C(/C=C/c1ccc(O)c(O)c1)O[C@H](Cc1ccc(O)c(O)c1)C(=O)O [Rosmarinic acid, rosmarinic acid]	129.25	132.14	125.43	146.83	124.08	180.16	increased protein titer	increased	increased	ammonium formation [2, 8]: reduced; lactate formation [2, 8]: reduced; protein titer [2, 8]: increased; viable cell density [2, 8]: increased; lactate formation [2, 11]: reduced; protein titer [2, 11]: increased; viable cell density [2, 11]: increased; ammonium formation [3, 12]: reduced; protein titer [3, 12]: increased; viable cell density [3, 12]: increased; protein titer [3, 10]: effect on protein titer was maintained; viable cell density [3, 10]: not changed
